From patent US20240285672A1, “BETA-GLUCAN FOR PREVENTING AND/OR TREATING FIBROSIS AND RELATED DISEASES” (GN Corporation Co Ltd, priority 2021, published 2024) come the findings set out here.

Each structure is given as a SMILES string.

Common to all, as to assay type: in vivo, C57BL/6J mice
For experiment [1], the system named is gut microbiota. Kind of experiment: Gut microbiome analysis of fecal samples, 16S rRNA sequencing (STAM mice). From the text:
Frequency: Fecal samples were collected at the 6 weeks of age (before administration) and 9 weeks of age (before sacrifice).
Procedure: At 6 weeks of age, fecal samples were collected from each mouse by clean catch method. Handle animals with clean gloves sterilized with 70% ethanol. A sterile petri dish was placed on the bench. Gently massage the abdomen, position the bottom of mouse over a fresh petri dish, and collect 1-2 fecal pellets. At sacrifice, fecal samples were aseptically collected from cecum. The tubes with feces were placed on ice immediately. These tubes were snap frozen in liquid nitrogen and stored at −80° C. for shipping.
In this analysis, the 16S rRNA sequence data acquired by the next-generation sequencer from the fecal […] was used to perform community analysis using the QIIME2 program for microbial community analysis. The raw read data in FASTQ format output from the next-generation sequencer was trimmed to remove adapter sequences and low QV regions that may be included in the data. Cutadapt was used to remove adapter sequences from DNA sequencing reads. Trimmomatic was used as read trimming tool for Illumina NGS data. The adapter sequence was trimmed using the adapter trimming program “cutadapt” if the Trimming of the region at the end of the read sequence overlapped the corresponding sequence by at least one base (mismatch tolerance: 20%). […]

Experiment [2] is described as follows: Plasma ALT in STAM mice (F18S study). Conditions: at 9 weeks of age. On the procedure: At study termination, non-fasting blood was collected through direct cardiac puncture using pre-cooled syringes. The collected blood was transferred in pre-cooled polypropylene tubes with anticoagulant (Novo-Heparin) and stored on ice until centrifugation. The blood samples were centrifuged at 1,000×g for 15 minutes at 4° C. The supernatant was collected and stored at −80° C. for biochemistry and evaluation.
Plasma ALT levels were measured by FUJI DRI-CHEM 7000 (Fujifilm Corporation).

The test system of experiment [3] is STAM mouse model of non-alcoholic steatohepatitis. Kind of experiment: HE staining, NAFLD Activity Score (F18S study). Conditions: STAM mice liver. As to the method:
For HE staining, sections were cut from paraffin blocks of liver tissue prefixed in Bouin's solution and stained with Lillie-Mayer's Hematoxylin (Muto Pure Chemicals Co., Ltd., Japan) and eosin solution (Wako Pure Chemical Industries). The NAFLD Activity Score (NAS) was calculated according to the criteria of Kleiner (Kleiner D E. Et al., Hepatology, 2005; 41:1313), as shown in Table 2. For NAS scoring, bright field images of HE-stained sections were captured using a digital camera (DFC295; Leica, Germany) at 50- and 200-fold magnifications. Steatosis score in 1 section/mouse (representative 1 field at 50-fold magnification), inflammation score in 1 section/mouse (representative 1 field around the central vein at 200-fold magnification) and ballooning score in 1 section/mouse (representative 1 field around the central vein at 200-fold magnification) were estimated.

For experiment [4] the test system is unchanged. Kind of experiment: Sirius red staining of liver sections, fibrosis area (F18S study). Conditions: STAM mice liver, x200. As to the method:
To visualize collagen deposition, Bouin's fixed liver sections were stained using picro-Sirius red solution (Waldeck, Germany). Briefly, sections were deparaffinized and hydrophilized with xylene, 100-70% alcohol series and RO water, and then treated with 0.03% picro-Sirius red solution (Cat No.: 1A-280) for 60 minutes. After washing with 0.5% acetic acid solution and RO water, stained sections were dehydrated and cleared with 70-100% alcohol series and xylene, then sealed with Entellan® new (Merck, Germany) and used for observation.
For quantitative analysis of the fibrosis area and inflammation area, bright field images of Sirius red-stained and F4/80-immunostained sections were captured around the central vein using a digital camera (DFC295; Leica, Germany) at 200-fold magnification, and the positive areas in 5 fields/section were measured using ImageJ software (National Institute of Health, USA).

Take `CCCc1nc2c(C)cc(-c3nc4ccccc4n3C)cc2n1Cc1ccc(-c2ccccc2C(=O)O)cc1` [Telmisartan]: the “decrease in firmicutes and increase in Bacteroides” value in experiment [1] (post-intervention, compared to all other groups) was “highest”. Also, the Proteobacteria entry in experiment [1] (pre vs post-intervention) is “increased”. Also, the “Plasma ALT levels (Mean)” value in experiment [2] worked out at 36 U/L. Moreover, in experiment [3] (HE staining), the NAS average score stood at 2.625 and the “NAS compared with the other groups” value is on record as “significantly lesser score”. For the same compound, in experiment [3] (compared with the vehicle), the “Ballooning and steatosis score” value is recorded as “decreased most”. For the same compound, in experiment [4], the “Sirius red average positive stained area” value is 0.59.
